The results in this text go back to US12459894B2, “Orally active melanocortin receptor-4 compounds” (Palatin Technologies, Inc., priority 2018, dated 2025).

The subject of one assay is C57BL/6 male DIO mice. Nature of the assay: Body weight and food intake in vivo study in diet induced obese (DIO) mice. Also on record: species or system mouse. As to conditions: for Body Weight Change (%) Mean / Food Intake - 24 Hours (g) Mean: 1 mg/kg subcutaneous twice daily. How it is done:
Compound 7.1 was assessed in a body weight and food intake in vivo study in diet induced obese (DIO) mice. C57BL/6 male DIO mice were utilized, that were 17 weeks of age on arrival. Animals were pre-conditioned on a high-fat diet for 11 weeks by Jackson Labs. […] Animals were single housed within a limited access rodent facility, and provided ad libitum with a commercial rodent diet and free access to drinking water. Animals were randomized into five groups, a vehicle group, three dose levels of compound 7.1 (3 mg/kg, 10 mg/kg and 30 mg/kg), and Peptide A, a positive control cyclic peptide of the formula Ac-Arg-cyclo(Om-Asn-D-Phe-Arg-Trp-Glu)-NH2. Following three days of sham dosing, animals were dosed for three days, with vehicle or Compound 7.1 dosed orally once daily at within one hour of lights out in the AM, and Peptide A dosed by subcutaneous injection twice daily within one hour before lights out and six hours after lights out. Body weights were measured one hour prior to lights out, and feed weights were measured both one hour prior to lights out and six hours post lights out.
• *p<0.05 vs. sham (vehicle control) using two-way ANOVA followed by Dunnett's post-test. • **p<0.01 vs sham (vehicle control) using two-way ANOVA followed by Dunnett's post-test.

The target of assay [1] is T1, MC4r (Homo sapiens, UniProt P32245). The assay is described as follows: Functional cAMP study in human MC4r expression system approximating maximal physiologic receptor densities. It is filed as cell-based. Also noted: host or cells: TREx-293 transfected with pcDNA4/TO/MC4R. How it is done: Assay for Agonist Activity. Accumulation of intracellular cAMP was examined as a measure of the ability of the peptides of the present invention to elicit a functional response in HEK-293 cells that express MC4-R. Confluent HEK-293 cells that express recombinant hMC4-R were detached from culture plates by incubation in enzyme-free cell dissociation buffer. Dispersed cells were suspended in Hanks' Balanced Salt Solution containing 10 mM HEPES (pH 7.5), 1 mM MgCl2, 1 mM glutamine, 0.5% albumin and 0.3 mM 3-isobutyl-1-methyl-xanthine (IBMX), a phosphodiesterase inhibitor. The cells were plated in 96-well plates at a density of 0.5×10^5 cells per well and pre-incubated for 10 minutes. Cells were exposed for 15 minutes at 37° C. to peptides of the present invention dissolved in DMSO (final DMSO concentration of 1%) at a concentration range of 0.05-5000 nM in a total assay volume of 200 μL. NDP-α-MSH was used as the reference agonist. cAMP levels were determined by an HTRF® cAMP cell-based assay system from Cisbio Bioassays utilizing cryptate-labeled anti-cAMP and d2-labeled cAMP, with plates read on a Perkin-Elmer Victor plate reader at […]. Data analysis was performed by nonlinear regression analysis with Graph-Pad Prism® software. The maximum efficacies of the test peptides of the present invention were compared to that achieved by the reference melanocortin agonist NDP-αMSH. […]

In assay [2] the target is T1, MC4r. The assay is described as follows: Competitive inhibition binding assay, MC4r. Also noted: expressed in transfected cells; host or cells: HEK-293 (membrane homogenates). Particulars: binding studies. Here is the method:
A competitive inhibition binding assay is performed using membrane homogenates prepared from HEK-293 cells that express recombinant hMC1ra, hMC4r, hMC3r, or hMC5r, and from B16-F10 mouse melanoma cells (containing endogenous MC1r). In the examples that follow, all values are for human recombinant receptors unless otherwise noted. Assays are performed in 96 well GF/B Millipore multiscreen filtration plates (MAFB NOB10) pre-coated with 0.5% bovine serum albumin (Fraction V). […] After incubation for 60 to 90 minutes at 37° C., the assay mixture is filtered and the membranes washed three times with ice-cold buffer. Filters are dried and counted in a gamma counter for bound radioactivity.
Maximal specific binding (100%) is defined as the difference in radioactivity (cpm) bound to cell membranes in the absence and presence of 1 μM NDP-α-MSH. […] Each assay is conducted in duplicate or triplicate and the actual mean values are described, with results less than 0% reported as 0%. Ki values for test compounds are determined using Graph-Pad Prism® curve-fitting software.
Competitive Binding Assay Using Eu-NDP-α-MSH. […] The plates were incubated on a shaker for 15 minutes and read at 340 nm excitation and 615 nm emission wavelengths. […] Ki values were determined by curve-fitting with Graph-Pad Prism® software using a one-site fixed-slope competition binding model.

Marks after values point to notes of the source that are not given here.

T1 sequence (P32245 whole entry): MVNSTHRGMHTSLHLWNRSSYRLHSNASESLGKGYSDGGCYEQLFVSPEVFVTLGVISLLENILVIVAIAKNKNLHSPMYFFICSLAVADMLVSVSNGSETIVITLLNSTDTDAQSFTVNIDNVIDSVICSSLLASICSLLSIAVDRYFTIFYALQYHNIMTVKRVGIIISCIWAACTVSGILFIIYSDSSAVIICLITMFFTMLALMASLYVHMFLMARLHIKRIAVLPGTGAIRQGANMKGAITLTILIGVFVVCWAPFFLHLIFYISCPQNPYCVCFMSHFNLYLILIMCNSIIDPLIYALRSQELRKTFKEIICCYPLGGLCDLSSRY

Take “Ac-Arg-cyclo(Om-Asn-D-Phe-Arg-Trp-Glu)-NH2 [Peptide A, reference compound]”: the “Body Weight Change (%) Mean” value with C57BL/6 male DIO mice (Day 0) was 0%; with C57BL/6 male DIO mice (Day 1), −5.69** %; with C57BL/6 male DIO mice (Day 2) it was −8.37** %; in the assay on C57BL/6 male DIO mice (Day 3), −8.78** %. For the same compound, the “Food Intake - 24 Hours (g) Mean” value in the assay on C57BL/6 male DIO mice (Day 0, 24 hours post lights out) is on record as 0.99** g; with C57BL/6 male DIO mice (Day 1, 24 hours post lights out), 1.10** g; in the assay on C57BL/6 male DIO mice (Day 2, 24 hours post lights out), 1.67** g. Moreover, the “feed intake” value with C57BL/6 male DIO mice (1 mg/kg, 24 hours post lights out, entirety of the study, vs sham) is “significantly inhibited feed intake”. In addition, the “body weight” value in the assay with C57BL/6 male DIO mice (two times daily 1 mg/kg, throughout the study) was “decreased animal body weights”.

A word on the EC50: it is the concentration needed to bring the measured effect to its halfway point. The term Ki denotes a dissociation constant, usually derived from enzyme kinetics or from competition with a known ligand. High values mean weaker binding, low ones tighter binding. Take `CNC(C)(C)C(=O)N[C@H](Cc1ccc(Cl)cc1)C(=O)N1CCN(N(CC(C)C)C2CCN(C(C)=O)CC2)CC1` [Compound 7.9, N-[(1R)-2-[4-[(1-acetyl-4-piperidyl)-isobutyl-amino]piperazin-1-yl]-1-[(4-chlorophenyl)methyl]-2-oxo-ethyl]-2-methyl-2-(methylamino)propanamide]: on MC4r [1], the 50% effective concentration (EC50) was 5 nM. Further, the Emax at MC4r [1] (read-out: relative efficacy, compared to NDP-α-MSH) stood at 19%. Also, the inhibitory constant (Ki) at MC4r [2] was 5 nM.
